Measurements as given in PMC4211601, “Defining the conformation of human mincle that interacts with mycobacterial trehalose dimycolate” (Glycobiology, 2014).

Target: T1, human mincle CRD (Homo sapiens, UniProt Q9ULY5)
T1 construct: gene CLEC4E; C-terminal biotinylation tag kept; immobilised on streptavidin plates
T1 sequence (Q9ULY5 74-219): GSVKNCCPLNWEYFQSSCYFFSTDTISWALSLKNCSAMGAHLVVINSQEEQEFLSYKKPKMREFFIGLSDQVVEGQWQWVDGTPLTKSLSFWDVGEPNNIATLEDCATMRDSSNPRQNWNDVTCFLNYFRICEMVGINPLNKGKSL
Assay: competition with […]-Man31-BSA on immobilised CRD
Format: binding

Structure (SMILES)	Ki [µM]
CCCCCC(=O)OC[C@H]1O[C@H](O[C@H]2O[C@H](COC(=O)CCCCC)[C@@H](O)[C@H](O)[C@H]2O)[C@H](O)[C@@H](O)[C@@H]1O [dihexanoate derivative]	12.5
CCCCCC(=O)OC[C@H]1O[C@H](O[C@H]2O[C@H](CO)[C@@H](O)[C@H](O)[C@H]2O)[C@H](O)[C@@H](O)[C@@H]1O [monohexanoate derivative]	184 ± 6
CCCCCCCC(=O)OC[C@H]1O[C@H](O[C@H]2O[C@H](CO)[C@@H](O)[C@H](O)[C@H]2O)[C@H](O)[C@@H](O)[C@@H]1O [monooctanoyl trehalose]	45 ± 4
